How the values were obtained:
[1] = cited from earlier work
[2] = tested on: intracellular P. gingivalis; experiment: Intracellular killing of P. gingivalis in H357 keratinocytes (invasion assay, colony count); assay type: cell-based; conditions: H357 cells infected at MOI 100; metronidazole 0.01-10 μg/ml with 2 mg/ml vesicles; FIG. 7
Procedure: The polymer was prepared as in Example 9a. The film was dissolved by adding 2 ml of sterilized PBS (pH2) until the solution was clear. The concentration of polymer was 10 mg/ml. This was then sterilized using a 0.2 μm filter. The pH of the solution was adjusted to 7.4 with sterilized 1M NaOH and the vesicles purified by gel filtration chromatography using sterilized sepharose agar 4B (Sigma, Poole, Dorset, UK). […] After that, 200 μl of the medium was collected for H357 viability test using the LDH assay. Moreover, keratinocytes in a different plate treated in an identical manner was tested for H357 viability using propidium iodide and Hoechst. […] Serial dilutions of the lysate were used to determine colony count. […] This was then sonicated for 30 minutes to improve encapsulation. The mixture was not separated by size-exchange chromatography, so the free metronidazole was in equilibrium with the encapsulated metronidazole. P. gingivalis (ATCC 33277) at MOI 100 was used to infect H357 cells for 90 min. […] Saponin was then used to release intracellular bacteria from H357 cells and the number of intracellular P. gingivalis measured by counting the colonies from serial dilutions.

H357 = conditions: LDH assay; all concentrations; FIG. 8

Row | Molecule | log P [1] | recovered intracellular P. gingivalis (killing of intracellular bacteria) [2] | viability of H357 (H357)
1 | Cc1ncc([N+](=O)[O-])n1CCO [metronidazole, Metronidazole] | negative |  | 
2 | gentamycin |  | not able to kill the intracellular P. gingivalis | not significantly different

— patent publication US10525004B2, “Epithelial delivery” (BIOCOMPATIBLES UK LIMITED, priority 2008, dated 2020)
